How the values were obtained:
Type in all cases: in vivo
Blattella germanica = experiment: Test Example 9: filter paper with sucrose bait, Blattella germanica; conditions: 500 ppm, 0.7 ml on filter paper, male imagoes, after 6 days
Description: The formulation of the compound 1-6 or 1-24 as obtained in Formulation Example 5 was diluted with water, so as to have a concentration of each compound of 500 ppm, to obtain a diluent.
A filter paper having a diameter of 5.5 cm was spread on the bottom of a polyethylene cup having the same diameter and 0.7 ml of the diluent was added dropwise onto the filter paper, and 30 mg of sucrose was uniformly placed as bait. Into the polyethylene cup, 2 male imagoes of Blattella germanica were released, and the cup was sealed with a lid. After 6 days, the life and death of Blattella germanica was examined, the number of dead insects was counted, and the death rate was calculated according to the following equation. Death rate (%)=(Number of dead insects/Number of tested insects)×100

[1] = test system: Haemaphysalis longicornis; experiment: Test Example 11: coated screw tube contact test, Haemaphysalis longicornis ticks; conditions: 2 mg compound coated on inner wall of screw tube, non-blood-sucking nymphal ticks, after 2 days
Description: 2 mg of each of the compounds 1-6, 1-10, 1-15, 1-24 or 1-37 to 1-38 was weighed in a screw tube (Maruemu No. 5; 27×55 mm), and 0.2 mL of acetone was added thereto and sealed with a cap to dissolve the compound. The screw tube was rotated and inverted to uniformly coat the liquid onto the whole inner wall of the tube. After removing the cap, the solution was air-dried for about 2 hours, then non-blood-sucking nymphal ticks, Haemaphysalis longicornis (5 ticks/group) were released, and the tube was sealed with the cap. After 2 days, the number of dead insects was counted, and the death rate was calculated according to the following equation: Death rate (%)=100×(Number of dead insects/Number of tested insects)

Nilaparvata lugens = experiment: Test Example 4: soil drench of rice seedling, Nilaparvata lugens larvae released; conditions: 500 ppm, 5 ml drench at foot of rice seedling, third instar larvae released after 7 days, examined 6 days later
Description: The formulation of the compound 1-15 as obtained in Formulation Example 5 was diluted with water, so as to have a concentration of the compound of 500 ppm, to obtain a diluent.
On the other hand, a rice seedling (2 weeks after sowing, the second leaf stage) planted in a plastic cup was drenched at its foot with 5 ml of the diluent, and kept in a greenhouse at 25° C. for 7 days. 20 third instar larvae of Nilaparvata lugens were released, and further kept in the greenhouse for 6 days, then the number of surviving Nilaparvata lugens parasitic on the rice was examined, and the death rate was calculated according to the following equation: Death rate (%)=(1−Surviving insects/20)×100
wherein the non-treated section refers to a section where a liquid prepared by diluting the formulation not containing the present compound in Formulation Example 5 with the same amount of water as in the treated section was sprayed.

Aphis gossypii = experiment: Test Example 2: soil drench of cucumber seedling, later inoculated with Aphis gossypii; conditions: 500 ppm, 5 ml drench at foot of cucumber seedling, inoculated after 7 days, examined 6 days later
Description: The formulations of the compound 1-24 as obtained in Formulation Example 5 was diluted with water, so as to have a concentration of each compound of 500 ppm, to obtain a diluent. On the other hand, a cucumber seedling (the second true leaf stage) planted in a plastic cup was drenched at its foot with 5 ml of the diluent, and kept in a greenhouse at 25° C. for 7 days. On the cucumber leaf surface was inoculated about 30 Aphis gossypii (whole stage), and further kept in the greenhouse for 6 days, then the number of the surviving Aphis gossypii parasitic on the leaves of the cucumber was examined, and the control value was calculated according to the following equation: Control value (%)=(1−(Cb×Tai)/(Cai×Tb))×100 wherein the symbols represent as follows: Cb: the number of the insects in a non-treated section on inoculating insects Cai: the number of the surviving parasitic insects in a non-treated section on observation Tb: the number of the insects in a treated section on inoculating insects Tai: the number of the surviving parasitic insects in a treated section on observation wherein the non-treated section refers to a section where a liquid prepared by diluting the formulation not containing the present compound in Formulation Example 5 with the same amount of water as in the treated section was sprayed.

Row | SMILES | Death rate (Blattella germanica) [%] | Death rate [1] [%] | Death rate (Nilaparvata lugens) [%] | controlling value (Aphis gossypii) [%]
1 | CCSc1cc(C(F)(F)F)ccc1-c1nc(-c2ccc(C(F)(F)F)cn2)no1 [Compound 1-6] | 100 | 100 | – | –
2 | CCSc1cc(C(F)(F)F)ccc1-c1nnc(-c2ccc(C(F)(F)F)cn2)s1 [Compound 1-10] | – | 100 | – | –
3 | CCS(=O)(=O)c1cccnc1-c1noc(-c2cc(C(F)(F)F)cc(C(F)(F)F)c2)n1 [Compound 1-15] | – | 100 | ≥ 90 | –
4 | CCS(=O)(=O)c1ccccc1-c1noc(-c2cc(C(F)(F)F)cc(C(F)(F)F)c2)n1 [Compound 1-24] | 100 | 100 | – | ≥ 90
5 | CCS(=O)(=O)c1cccnc1-c1noc(-c2ccc(C(F)(F)F)s2)n1 [Compound 1-37] | – | 100 | – | –
6 | CCS(=O)(=O)c1cccnc1-c1noc(-c2cc(Cl)cc(Cl)c2)n1 [Compound 1-38] | – | 100 | – | –

Reference: patent US9884858B2, “Diaryl-azole compound” (Sumitomo Chemical Company, Limited, priority 2014, dated 2018)
